From patent US9908912B2, “Triclosan derivatives and uses thereof” (priority 2012, dated 2018)
Values after ≈ are worked out from the molar mass of the structure shown.

Columns and labels:
Ent. cloacae ATCC 13047 = assay: MIC in Nutrient Broth No. 2; type: cell-based, Enterobacter cloacae; conditions: Nutrient Broth No. 2
Experimental: (§1) Bacteria species as indicated in Table 1 were incubated for approximately 24 hours at 37° C.
(§2) The tests were repeated with the addition of inducers. Methyl glycoside was the main inducer used, but other suitable inducers include isopropyl-β-D-thiogalactopyranoside, p-nitrophenyl-α-L-arabinopyranoside and p-nitrophenyl-β-D-xylopyranoside. Concentration of inducer in all cases was 100 μg/ml.

[1] = test system: Kleb. aerogenes NCTC 88167; assay: MIC in Nutrient Broth No. 2; type: cell-based, Klebsiella aerogenes; conditions: Nutrient Broth No. 2
Experimental: as §1, §2

[2] = test system: Aeromonas hydrophila OCC 778; assay: MIC in Nutrient Broth No. 2; type: cell-based; conditions: Nutrient Broth No. 2
Experimental: as §1, §2

[3] = test system: Bacillus cereus ATCC 14579; assay: MIC in Nutrient Broth No. 2; type: cell-based; conditions: Nutrient Broth No. 2
Experimental: as §1, §2

[4] = test system: Bacillus subtilis NCTC 10073; assay: MIC in Nutrient Broth No. 2; type: cell-based; conditions: Nutrient Broth No. 2
Experimental: as §1, §2

[5] = test system: Citrobacter freundii OCC 851; assay: MIC in Nutrient Broth No. 2; type: cell-based; conditions: Nutrient Broth No. 2
Experimental: as §1, §2

[6] = test system: Enterobacter aerogenes ATCC 13048; assay: MIC in Nutrient Broth No. 2; type: cell-based; conditions: Nutrient Broth No. 2
Experimental: as §1, §2

[7] = test system: Enterococcus faecalis ATCC 29212; assay: MIC in Nutrient Broth No. 2; type: cell-based; conditions: Nutrient Broth No. 2
Experimental: as §1, §2

[8] = test system: Enterococcus faecium ATCC 19434; assay: MIC in Nutrient Broth No. 2; type: cell-based; conditions: Nutrient Broth No. 2
Experimental: as §1, §2

Escherichia coli = assay: MIC in Nutrient Broth No. 2; type: cell-based; conditions: 8 strains, Nutrient Broth No. 2
Experimental: as §1, §2

Hafnia alvei ATCC 13337 = assay: MIC in Nutrient Broth No. 2; type: cell-based; conditions: Nutrient Broth No. 2
Experimental: as §1, §2

[9] = test system: Proteus mirabilis ATCC 12453; assay: MIC in Nutrient Broth No. 2; type: cell-based; conditions: Nutrient Broth No. 2
Experimental: as §1, §2

Proteus vulgaris OCC 195 = assay: MIC in Nutrient Broth No. 2; type: cell-based; conditions: Nutrient Broth No. 2
Experimental: as §1, §2

[10] = test system: Ps. Aeruginosa ATCC 27853; assay: MIC in Nutrient Broth No. 2; type: cell-based; conditions: Nutrient Broth No. 2
Experimental: as §1, §2

Salmonella = assay: MIC in Nutrient Broth No. 2; type: cell-based; conditions: 11 strains, Nutrient Broth No. 2
Experimental: as §1, §2

[11] = test system: Serratia marcescens OCC 217; assay: MIC in Nutrient Broth No. 2; type: cell-based; conditions: Nutrient Broth No. 2
Experimental: as §1, §2

Staph. aureus = assay: MIC in Nutrient Broth No. 2; type: cell-based, Staphylococcus aureus; conditions: 8 strains, Nutrient Broth No. 2
Experimental: as §1, §2

[12] = test system: Staph. saprophyticus ATCC 15305; assay: MIC in Nutrient Broth No. 2; type: cell-based, Staphylococcus saprophyticus; conditions: Nutrient Broth No. 2
Experimental: as §1, §2

[13] = test system: Strep. agalactiae OCC 182; assay: MIC in Nutrient Broth No. 2; type: cell-based, Streptococcus agalactiae; conditions: Nutrient Broth No. 2
Experimental: as §1, §2

[14] = test system: Strep. pyogenes ATCC 19615; assay: MIC in Nutrient Broth No. 2; type: cell-based, Streptococcus pyogenes; conditions: Nutrient Broth No. 2
Experimental: as §1, §2

Ent. faecalis = assay: MIC in Nutrient Agar; type: cell-based, Enterococcus faecalis; conditions: Nutrient Agar containing 0.1 μg/ml of inducer; 37° C., 24 hours
Experimental: (§3) The triclosan-glycosides were added to Nutrient Agar (Oxoid CM0003; Thermofisher Scientific) and organisms were transferred onto the plates surface using a multi-point inoculation device (Oxoid Cathra, Thermofisher Scientific). The latter is essentially a metal plate containing a number of needles. Each needle tip (usually 36 per plate) dips into an organism suspension (in phosphate buffered saline; PBS) and the needles are then moved over the agar plate and lowered onto its surface. In this way the growth of colonies of up to 36 different organisms can be observed on one plate.
(§4) Nutrient Agar No. 2 was prepared according to the manufacturers instructions, autoclaved and cooled to 50° C. Test compounds were then added as filter sterilised solutions (50:50 deionised water:ethanol), to give final concentrations from 256 μg/ml to 0 μg/ml in doubling dilutions. […] The mixtures were swirled then four plates (25 ml molten agar) were poured for each concentration. Plates were dried in a laminar flow cabinet then inoculated with overnight cultures of organisms that had been decimally diluted twice in sterile saline solution (approximately 10^7 cfu/ml) using a multi-point inoculator. Plates were then incubated at 37° C. for 24 hours. MICs were determined as the concentration at which no growth was observed.

Ent. faecium = assay: MIC in Nutrient Agar; type: cell-based, Enterococcus faecium; conditions: Nutrient Agar containing 0.1 μg/ml of inducer; 37° C., 24 hours
Experimental: as §3, §4

S. haemolyticus = assay: MIC in Nutrient Agar; type: cell-based, Staphylococcus haemolyticus; conditions: Nutrient Agar containing 0.1 μg/ml of inducer; 37° C., 24 hours
Experimental: as §3, §4

Str. pneumoniae = assay: MIC in Nutrient Agar; type: cell-based, Streptococcus pneumoniae; conditions: Nutrient Agar containing 0.1 μg/ml of inducer; 37° C., 24 hours
Experimental: as §3, §4

Str. viridans = assay: MIC in Nutrient Agar; type: cell-based, Streptococcus viridans; conditions: Nutrient Agar containing 0.1 μg/ml of inducer; 37° C., 24 hours
Experimental: as §3, §4

Aer. hydrophila = assay: MIC in Nutrient Agar; type: cell-based, Aeromonas hydrophila; conditions: Nutrient Agar containing 0.1 μg/ml of inducer; 37° C., 24 hours
Experimental: as §3, §4

C. freundii = assay: MIC in Nutrient Agar; type: cell-based, Citrobacter freundii; conditions: Nutrient Agar containing 0.1 μg/ml of inducer; 37° C., 24 hours
Experimental: as §3, §4

Cr. sakazakii = assay: MIC in Nutrient Agar; type: cell-based, Cronobacter sakazakii; conditions: Nutrient Agar containing 0.1 μg/ml of inducer; 37° C., 24 hours
Experimental: as §3, §4

E. coli = assay: MIC in Nutrient Agar; type: cell-based, Escherichia coli; conditions: 8 strains; Nutrient Agar containing 0.1 μg/ml of inducer; 37° C., 24 hours
Experimental: as §3, §4

E. hermanii = assay: MIC in Nutrient Agar; type: cell-based, Escherichia hermanii; conditions: Nutrient Agar containing 0.1 μg/ml of inducer; 37° C., 24 hours
Experimental: as §3, §4

Kleb. aerogenes = assay: MIC in Nutrient Agar; type: cell-based, Klebsiella aerogenes; conditions: Nutrient Agar containing 0.1 μg/ml of inducer; 37° C., 24 hours
Experimental: as §3, §4

Kleb. pneumoniae = assay: MIC in Nutrient Agar; type: cell-based, Klebsiella pneumoniae; conditions: Nutrient Agar containing 0.1 μg/ml of inducer; 37° C., 24 hours
Experimental: as §3, §4

Ser. marcescens = assay: MIC in Nutrient Agar; type: cell-based, Serratia marcescens; conditions: Nutrient Agar containing 0.1 μg/ml of inducer; 37° C., 24 hours
Experimental: as §3, §4

O[C@@H]1[C@H](Oc2cc(Cl)ccc2Oc2ccc(Cl)cc2Cl)OC[C@@H](O)[C@H]1O [β-D-Arabinoside, triclosan-β-D-arabinopyranoside]
MIC (Ent. cloacae ATCC 13047; with inducer 100 μg/ml): 16 µg/mL (≈ 37.9 µM)
MIC (Ent. cloacae ATCC 13047; without inducer): 16 µg/mL (≈ 37.9 µM)
MIC ([1]; with inducer 100 μg/ml): 32 µg/mL (≈ 75.9 µM)
MIC ([1]; without inducer): 32 µg/mL (≈ 75.9 µM)
MIC ([2]; with inducer 100 μg/ml): >256 µg/mL
MIC ([2]; without inducer): >256 µg/mL
MIC ([3]; with inducer 100 μg/ml): 128 µg/mL (≈ 304 µM)
MIC ([3]; without inducer): 128 µg/mL (≈ 304 µM)
MIC ([4]; with inducer 100 μg/ml): 128 µg/mL (≈ 304 µM)
MIC ([4]; without inducer): 128 µg/mL (≈ 304 µM)
MIC ([5]; with inducer 100 μg/ml): 64 µg/mL (≈ 152 µM)
MIC ([5]; without inducer): 64 µg/mL (≈ 152 µM)
MIC ([6]; with inducer 100 μg/ml): 64 µg/mL (≈ 152 µM)
MIC ([6]; without inducer): 128 µg/mL (≈ 304 µM)
MIC ([7]; with inducer 100 μg/ml): 256 µg/mL (≈ 607 µM)
MIC ([7]; without inducer): 256 µg/mL (≈ 607 µM)
MIC ([8]; with inducer 100 μg/ml): 256 µg/mL (≈ 607 µM)
MIC ([8]; without inducer): 256 µg/mL (≈ 607 µM)
MIC (Escherichia coli; with inducer 100 μg/ml): 4 to 32 µg/mL
MIC (Escherichia coli; without inducer): 8 to 32 µg/mL
MIC (Hafnia alvei ATCC 13337; with inducer 100 μg/ml): 4 µg/mL (≈ 9.49 µM)
MIC (Hafnia alvei ATCC 13337; without inducer): 4 µg/mL (≈ 9.49 µM)
MIC ([9]; with inducer 100 μg/ml): 16 µg/mL (≈ 37.9 µM)
MIC ([9]; without inducer): 32 µg/mL (≈ 75.9 µM)
MIC (Proteus vulgaris OCC 195; with inducer 100 μg/ml): 64 µg/mL (≈ 152 µM)
MIC (Proteus vulgaris OCC 195; without inducer): 128 µg/mL (≈ 304 µM)
MIC ([10]; with inducer 100 μg/ml): >256 µg/mL
MIC ([10]; without inducer): >256 µg/mL
MIC (Salmonella; with inducer 100 μg/ml): 32 to 64 µg/mL
MIC (Salmonella; without inducer): 32 to 64 µg/mL
MIC ([11]; with inducer 100 μg/ml): >256 µg/mL
MIC ([11]; without inducer): >256 µg/mL
MIC (Staph. aureus; with inducer 100 μg/ml): 4 to 8 µg/mL
MIC (Staph. aureus; without inducer): 4 to 8 µg/mL
MIC ([12]; with inducer 100 μg/ml): 64 µg/mL (≈ 152 µM)
MIC ([12]; without inducer): 64 µg/mL (≈ 152 µM)
MIC ([13]; with inducer 100 μg/ml): 128 µg/mL (≈ 304 µM)
MIC ([13]; without inducer): 128 µg/mL (≈ 304 µM)
MIC ([14]; with inducer 100 μg/ml): 32 µg/mL (≈ 75.9 µM)
MIC ([14]; without inducer): 32 µg/mL (≈ 75.9 µM)
MIC (Ent. faecalis): 256 µg/mL (≈ 607 µM)
MIC (Ent. faecium): 256 µg/mL (≈ 607 µM)
MIC (S. haemolyticus): 16 µg/mL (≈ 37.9 µM)
MIC (Str. pneumoniae): 64 µg/mL (≈ 152 µM)
MIC (Str. viridans): 128 µg/mL (≈ 304 µM)
MIC (Aer. hydrophila): 256 µg/mL (≈ 607 µM)
MIC (C. freundii): 64 µg/mL (≈ 152 µM)
MIC (Cr. sakazakii): 256 µg/mL (≈ 607 µM)
MIC (E. coli): 8 to 32 µg/mL
MIC (E. hermanii): 32 µg/mL (≈ 75.9 µM)
MIC (Kleb. aerogenes): 64 µg/mL (≈ 152 µM)
MIC (Kleb. pneumoniae): 8 µg/mL (≈ 19 µM)
MIC (Ser. marcescens): >256 µg/mL
